Source: US8530648B2, “Diaza-spiro[5.5]undecanes” (Novartis AG, priority 2009, dated 2013)

Assays:
[1] = target: T1, hOx2R (Homo sapiens (Human), UniProt O43614); experiment: Radioligand binding assay, [125I]orexin A, hOx2R; details: radioligand [125I]orexin A, competition
Method: (§1) For crude cell membrane preparations, cells (CHO, Chinese hamster ovary or HEK, human embryonic kidney) expressing human orexin 1 or human orexin 2 receptors, were washed with HEPES (10 mM, pH 7.5), scraped off the culture plates with the same buffer, and centrifuged at 4° C. for 5 min at 2500×g. The cell pellet was either stored at −80° C. or used directly. Before the experiments, cell membranes were re-suspended in binding assay buffer (10 mM HEPES, 0.5% (w/v) bovine serum albumin, pH 7.5) by homogenisation with a Polytron homogeniser at 50 Hz for 20 s. Cell membranes were also used as made available by commercial providers.
(§2) In initial saturation experiments (to calculate Bmax), cell homogenates (150 μl) were incubated with 25-300 pM of the radioligand ([^125I]orexin A, 50 μl), 8 concentrations in triplicates in the presence or absence Orexin A (1 μM, 50 μl) to define non specific binding. Bound radioactivity was measured, and data were analysed with the program XLFIT or Graphpad Prism. Protein concentration was determined according to the Bradford/BioRad Protein Assay Kit.
(§3) In competition experiments, cell homogenates (150 μl) were incubated in assay buffer (10 mM HEPES, pH 7.5, 0.5% (w/v) bovine serum albumin, 5 mM MgCl2, 1 mM CaCl2, and tween 0.05%) for 1 h at room temperature with about 100 pM of the radioligand ([^125I]orexin A, 2100 Ci/mmole, 50 μl), and with various concentrations of compounds of the invention (50 μl) in triplicates; non-specific binding was determined in the presence of Orexin A (1 μM). Reactions were terminated by vacuum filtration, 3 washes of ice cold wash buffer (Tris-HCl pH 7.4/10 mM, with NaCl 154 mM).

[2] = target: T1, hOx2R; experiment: Calcium accumulation in cells (FLIPR), hOx2R; assay type: cell-based; details: inhibition of orexin A induced calcium accumulation, Cheng and Prusoff correction
How it was run: (§4)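 Cells expressing human orexin 1 or 2 receptor, serum-deprived overnight, loaded with Fluo-4-AM (2 μM) plus 0.1 mM probenecid, pH 7.4 HEPES buffer with 1% BSA.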

[3] = target: T2, hOx1R (Homo sapiens (Human), UniProt O43613); experiment: Calcium accumulation in cells (FLIPR), hOx1R; assay type: cell-based; details: for Ki: inhibition of orexin A induced calcium accumulation, Cheng and Prusoff correction
How it was run: as §4

[4] = target: T2, hOx1R; experiment: Radioligand binding assay, [125I]orexin A, hOx1R; details: radioligand [125I]orexin A, competition
Method: as §1, §2, §3

T1 sequence (O43614 whole entry): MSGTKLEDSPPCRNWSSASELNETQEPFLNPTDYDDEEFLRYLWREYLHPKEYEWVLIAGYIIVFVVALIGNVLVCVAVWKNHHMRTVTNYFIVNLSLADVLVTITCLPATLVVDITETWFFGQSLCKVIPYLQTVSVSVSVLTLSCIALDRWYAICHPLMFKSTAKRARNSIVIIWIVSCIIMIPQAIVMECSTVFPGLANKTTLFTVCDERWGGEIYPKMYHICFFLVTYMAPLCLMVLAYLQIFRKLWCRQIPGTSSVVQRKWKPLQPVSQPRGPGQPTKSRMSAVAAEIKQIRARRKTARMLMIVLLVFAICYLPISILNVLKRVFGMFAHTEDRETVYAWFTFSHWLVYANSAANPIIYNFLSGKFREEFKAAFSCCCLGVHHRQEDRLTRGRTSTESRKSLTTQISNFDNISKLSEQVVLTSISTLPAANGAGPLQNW
T2 sequence (O43613 whole entry): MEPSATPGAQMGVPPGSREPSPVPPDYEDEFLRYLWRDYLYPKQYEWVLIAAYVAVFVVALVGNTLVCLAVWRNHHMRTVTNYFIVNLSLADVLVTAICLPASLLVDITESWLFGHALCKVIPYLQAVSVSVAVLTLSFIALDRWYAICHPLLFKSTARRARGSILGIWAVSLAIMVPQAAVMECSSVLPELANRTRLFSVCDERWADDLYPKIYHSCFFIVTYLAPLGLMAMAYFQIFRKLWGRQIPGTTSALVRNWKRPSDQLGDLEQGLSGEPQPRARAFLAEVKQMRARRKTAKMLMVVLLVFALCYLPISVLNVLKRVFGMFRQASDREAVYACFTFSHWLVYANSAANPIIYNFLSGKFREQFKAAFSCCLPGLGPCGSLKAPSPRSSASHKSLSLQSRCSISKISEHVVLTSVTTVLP

## O=C1N(Cc2cccc3ccccc23)CCCC12CCN(c1cnc3ccccc3n1)CC2 [Example 2, 2-(naphthalen-1-ylmethyl)-9-(quinoxalin-2-yl)-2,9-diazaspiro[5.5]undecan-1-one]
[1]
  Kd: 34 nM
[2]
  Ki: 30 nM
[3]
  Ki: 482 nM
[4]
  Kd: 360 nM

## O=C1N(Cc2cccc3[nH]ccc23)CCCC12CCN(c1cnc3ccccc3n1)CC2 [Example 3, 2-((1H-indol-4-yl)methyl)-9-(quinoxalin-2-yl)-2,9-diazaspiro[5.5]undecan-1-one]
[1]
  Kd: 130 nM
[2]
  Ki: 63 nM
[3]
  Ki: 474 nM
[4]
  Kd: 630 nM

## O=C1N(Cc2cccc3c2OCCO3)CCCC12CCN(c1cnc3ccccc3n1)CC2 [Example 4, 2-((2,3-dihydrobenzo[b][1,4]dioxin-5-yl)methyl)-9-(quinoxalin-2-yl)-2,9-diazaspiro[5.5]undecan-1-one]
[1]
  Kd: 121 nM
[2]
  Ki: 46 nM
[3]
  Ki: 1360 nM
[4]
  Kd: 2060 nM

## O=C1N(Cc2cccc(-c3cccnc3)c2)CCCC12CCN(c1cnc3ccccc3n1)CC2 [Example 5, 2-(3-(pyridin-3-yl)benzyl)-9-(quinoxalin-2-yl)-2,9-diazaspiro[5.5]undecan-1-one]
[1]
  Kd: 98 nM
[2]
  Ki: 22 nM
[3]
  Ki: 83 nM
[4]
  Kd: 426 nM

## O=C1N(Cc2ccccc2)CCCC12CCN(c1cnc3ccccc3n1)CC2 [Example 6, 2-benzyl-9-(quinoxalin-2-yl)-2,9-diazaspiro[5.5]undecan-1-one]
[1]
  Kd: 300 nM
[2]
  Ki: 371 nM
[3]
  Ki: 1480 nM
[4]
  Kd: 1310 nM

## O=C1N(Cc2cccc3c2OCO3)CCCC12CCN(c1cnc3ccccc3n1)CC2 [Example 9, 2-(benzo[d][1,3]dioxol-4-ylmethyl)-9-(quinoxalin-2-yl)-2,9-diazaspiro[5.5]undecan-1-one]
[1]
  Kd: 413 nM
[2]
  Ki: 35 nM
[3]
  Ki: 904 nM
[4]
  Kd: 2350 nM

## O=C1N(Cc2ccccc2)CCCC12CCN(c1nc3ccccc3[nH]1)CC2 [Example 10, 9-(1H-benzo[d]imidazol-2-yl)-2-benzyl-2,9-diazaspiro[5.5]undecan-1-one]
[1]
  Kd: 439 nM
[2]
  Ki: 1070 nM
[3]; measured at a concentration of 10 μM of compound
  inhibition at 10 µM: 0%
[4]
  Kd: 3360 nM

## Cn1c(N2CCC3(CCCN(Cc4cccc5ccccc45)C3=O)CC2)nc2ccccc21 [Example 12, 9-(1-methyl-1H-benzo[d]imidazol-2-yl)-2-(naphthalen-1-ylmethyl)-2,9-diazaspiro[5.5]undecan-1-one]
[1]
  Kd: 6100 nM
[4]
  Kd: > 10000 nM

## Cc1cc2c(CN3CCCC4(CCN(c5cnc6ccccc6n5)CC4)C3=O)cccc2[nH]1 [Example 13, 2-((2-methyl-1H-indol-4-yl)methyl)-9-(quinoxalin-2-yl)-2,9-diazaspiro[5.5]undecan-1-one]
[1]
  Kd: 62 nM
[2]
  Ki: 35 nM
[3]
  Ki: 365 nM
[4]
  Kd: 776 nM

## O=C1N(Cc2cccc(C(F)(F)F)c2)CCCC12CCN(c1cnc3ccccc3n1)CC2 [Example 14, 9-(quinoxalin-2-yl)-2-(3-(trifluoromethyl)benzyl)-2,9-diazaspiro[5.5]undecan-1-one]
[1]
  Kd: 211 nM
[2]
  Ki: 112 nM
[3]
  Ki: 948 nM
[4]
  Kd: 1380 nM

## Cc1cccc(CN2CCCC3(CCN(c4cnc5ccccc5n4)CC3)C2=O)c1 [Example 15, 2-(3-methylbenzyl)-9-(quinoxalin-2-yl)-2,9-diazaspiro[5.5]undecan-1-one]
[1]
  Kd: 288 nM
[2]
  Ki: 155 nM
[3]
  Ki: 1380 nM
[4]
  Kd: 1400 nM

## O=C1N(Cc2cccc3cccnc23)CCCC12CCN(c1cnc3ccccc3n1)CC2 [Example 21, 2-(quinolin-8-ylmethyl)-9-(quinoxalin-2-yl)-2,9-diazaspiro[5.5]undecan-1-one]
[1]
  Kd: 211 nM
[2]
  Ki: 213 nM
[3]
  Ki: 1760 nM
[4]
  Kd: 3280 nM

## O=C1N(Cc2cccc(-c3ccccc3)c2)CCCC12CCN(c1cnc3ccccc3n1)CC2 [Example 22, 2-(biphenyl-3-ylmethyl)-9-(quinoxalin-2-yl)-2,9-diazaspiro[5.5]undecan-1-one]
[1]
  Kd: 59 nM
[2]
  Ki: 51 nM
[3]
  Ki: 518 nM
[4]
  Kd: 1320 nM

## O=C1N(Cc2ccccc2C(F)(F)F)CCCC12CCN(c1cnc3ccccc3n1)CC2 [Example 23, 9-(quinoxalin-2-yl)-2-(2-(trifluoromethyl)benzyl)-2,9-diazaspiro[5.5]undecan-1-one]
[1]
  Kd: 1090 nM
[2]
  Ki: 280 nM
[3]
  Ki: 2740 nM
[4]
  Kd: 4480 nM

## O=C1N(Cc2ccc(C(F)(F)F)cc2)CCCC12CCN(c1cnc3ccccc3n1)CC2 [Example 24, 9-(quinoxalin-2-yl)-2-(4-(trifluoromethyl)benzyl)-2,9-diazaspiro[5.5]undecan-1-one]
[1]
  Kd: 5240 nM
[4]
  Kd: > 10000 nM

## O=C1N(Cc2ccc3c(c2)OCCO3)CCCC12CCN(c1cnc3ccccc3n1)CC2 [Example 25, 2-((2,3-dihydrobenzo[b][1,4]dioxin-6-yl)methyl)-9-(quinoxalin-2-yl)-2,9-diazaspiro[5.5]undecan-1-one]
[1]
  Kd: 3210 nM
[4]
  Kd: 5250 nM

## O=C1N(Cc2cccc(Cl)c2)CCCC12CCN(c1cnc3ccccc3n1)CC2 [Example 27, 2-(3-chlorobenzyl)-9-(quinoxalin-2-yl)-2,9-diazaspiro[5.5]undecan-1-one]
[1]
  Kd: 169 nM
[2]
  Ki: 84 nM
[3]
  Ki: 740 nM
[4]
  Kd: 702 nM

## Cc1onc(-c2ccccc2)c1CN1CCCC2(CCN(c3cnc4ccccc4n3)CC2)C1=O [Example 34, 2-((5-methyl-3-phenylisoxazol-4-yl)methyl)-9-(quinoxalin-2-yl)-2,9-diazaspiro[5.5]undecan-1-one]
[1]
  Kd: 181 nM
[2]
  Ki: 88 nM
[3]
  Ki: 1560 nM
[4]
  Kd: 4320 nM

## O=C1CCCC2(CCN(c3cnc4ccccc4n3)CC2)N1Cc1cccc2[nH]ccc12 [Example 38, 1-((1H-indol-4-yl)methyl)-9-(Quinoxalin-2-yl)-1,9-diazaspiro[5.5]undecan-2-one]
[1]
  Kd: 7 nM
[2]
  Ki: 1 nM
[3]
  Ki: 13 nM
[4]
  Kd: 17 nM

## Cc1ccc(C)c(CN2C(=O)CCCC23CCN(c2cnc4ccccc4n2)CC3)c1 [Example 41, 1-(2,5-dimethylbenzyl)-9-(quinoxalin-2-yl)-1,9-diazaspiro[5.5]undecan-2-one]
[1]
  Kd: 36 nM
[2]
  Ki: 16 nM
[3]
  Ki: 77 nM
[4]
  Kd: 100 nM

## O=C1CCCC2(CCN(c3nc4ccccc4o3)CC2)N1Cc1cccc2[nH]ccc12 [Example 42, 1-((1H-indol-4-yl)methyl)-9-(benzo[d]oxazol-2-yl)-1,9-diazaspiro[5.5]undecan-2-one]
[1]
  Kd: 12 nM
[2]
  Ki: 3 nM
[3]
  Ki: 20 nM
[4]
  Kd: 36 nM

## O=C1N(Cc2cccc(-c3ccccn3)c2)CCCC12CCN(c1cnc3ccccc3n1)CC2 [Example 54, 2-(3-(pyridin-2-yl)benzyl)-9-(quinoxalin-2-yl)-2,9-diazaspiro[5.5]undecan-1-one]
[1]
  Kd: 175 nM
[2]
  Ki: 47 nM
[3]
  Ki: 420 nM
[4]
  Kd: 634 nM

## O=C1N(Cc2c[nH]c3ncccc23)CCCC12CCN(c1cnc3ccccc3n1)CC2 [Example 57, 2-((1H-pyrrolo[2,3-b]pyridin-3-yl)methyl)-9-(quinoxalin-2-yl)-2,9-diazaspiro[5.5]undecan-1-one]
[1]
  Kd: 159 nM
[2]
  Ki: 92 nM
[3]
  Ki: 1030 nM
[4]
  Kd: 959 nM

## O=C1CCCC2(CCN(c3nc4cc(Cl)ccc4o3)CC2)N1Cc1cccc2[nH]ccc12 [Example 136, 1-((1H-indol-4-yl)methyl)-9-(5-chlorobenzo[d]oxazol-2-yl)-1,9-diazaspiro[5.5]undecan-2-one]
[1]
  Kd: 96 nM
[2]
  Ki: 11 nM
[3]
  Ki: 657 nM
[4]
  Kd: 1410 nM
